Read-outs that look alike come from different tables or passages of the source.
How the values were obtained:
Assay type in all cases: cell-based
[1] = system: Staphylococcus aureus 88 E; test: Antibacterial activity for MRSA; conditions: Staphylococcus aureus 88 E (MRSA)
Procedure: (§1) The compound of example 2 was orally administered to determine the LD50 for a group of male mice. […] The antibacterial activity for MRSA(Methicillin Resistant Staphyloccocus Aureus) was tested by the compound of example 2.

[2] = system: Staphylococcus aureus 703E; test: Antibacterial activity for MRSA; conditions: Staphylococcus aureus 703E (MRSA)
Procedure: as §1

[3] = system: Staphylococcus aureus 690E; test: Antibacterial activity for MRSA; conditions: Staphylococcus aureus 690E (MRSA)
Procedure: as §1

[4] = system: Staphylococcus aureus 714E; test: Antibacterial activity for MRSA; conditions: Staphylococcus aureus 714E (MRSA)
Procedure: as §1

[5] = system: Staphylococcus aureus 752E; test: Antibacterial activity for MRSA; conditions: Staphylococcus aureus 752E (MRSA)
Procedure: as §1

[6] = system: Staphylococcus aureus 121E; test: Antibacterial activity for MRSA; conditions: Staphylococcus aureus 121E (MRSA)
Procedure: as §1

[7] = system: Staphylococcus aureus 705E; test: Antibacterial activity for MRSA; conditions: Staphylococcus aureus 705E (MRSA)
Procedure: as §1

[8] = system: Saphylococcus aureus 692E; test: Antibacterial activity for MRSA; conditions: Saphylococcus aureus 692E (MRSA)
Procedure: as §1

[9] = system: Staphylococcus aureus 711E; test: Antibacterial activity for MRSA; conditions: Staphylococcus aureus 711E (MRSA)
Procedure: as §1

[10] = system: Staphylococcus aureus 694E; test: Antibacterial activity for MRSA; conditions: Staphylococcus aureus 694E (MRSA)
Procedure: as §1

[11] = system: Staphylococcus aureus 706E; test: Antibacterial activity for MRSA; conditions: Staphylococcus aureus 706E (MRSA)
Procedure: as §1

[12] = system: Staphylococcus aureus 707E; test: Antibacterial activity for MRSA; conditions: Staphylococcus aureus 707E (MRSA)
Procedure: as §1

[13] = system: Staphylococcus aureus 708E; test: Antibacterial activity for MRSA; conditions: Staphylococcus aureus 708E (MRSA)
Procedure: as §1

[14] = system: Staphylococcus aureus 256E; test: Antibacterial activity for MRSA; conditions: Staphylococcus aureus 256E (MRSA)
Procedure: as §1

[15] = system: Staphylococcus aureus 208E; test: Antibacterial activity for MRSA; conditions: Staphylococcus aureus 208E (MRSA)
Procedure: as §1

[16] = system: Staphylococcus aureus 695E; test: Antibacterial activity for MRSA; conditions: Staphylococcus aureus 695E (MRSA)
Procedure: as §1

[17] = system: Staphylococcus aureus 697E; test: Antibacterial activity for MRSA; conditions: Staphylococcus aureus 697E (MRSA)
Procedure: as §1

[18] = system: Staphylococcus aureus 693E; test: Antibacterial activity for MRSA; conditions: Staphylococcus aureus 693E (MRSA)
Procedure: as §1

[19] = system: Staphylococcus aureus 701E; test: Antibacterial activity for MRSA; conditions: Staphylococcus aureus 701E (MRSA)
Procedure: as §1

S. pyogenes A 77 = test: In vitro antibacterial activity, MIC by agar dilution method; conditions: Streptococcus pyogenes, A77, read-out: In vitro Antibacterial Activity, MIC
Procedure: (§2) The typical examples of the present compounds were tested for antimicrobial activity in vitro against twenty strains of Gram-positive and Gram-negative microorganisms.
(§3) The numerals in the table 1 show minimum inhibitory concentrations(MIC in µg/ml). The minimum inhibitory concentrations were determined according to the agar dilution method recommended by Japan Society of Chemotherapy[Chemotherapy., 29, 76 (1981)].

E. coli 1507E = test: as above; conditions: Escherichia coli, read-out: In vitro Antibacterial Activity, MIC
Procedure: as §2, §3

P. aeruginosa 1771 = test: as above; conditions: Pseudomonas aeruginosa, 1771, read-out: In vitro Antibacterial Activity, MIC
Procedure: as §2, §3

P. aeruginosa 1592E = test: as above; conditions: Pseudomonas aeruginosa, 1592E, read-out: In vitro Antibacterial Activity, MIC
Procedure: as §2, §3

P. aeruginosa 9027 = test: as above
Procedure: as §2, §3

S. aureus SG 511 = test: as above; conditions: Staphylococcus aureus, SG511, read-out: In vitro Antibacterial Activity, MIC
Procedure: as §2, §3

E. coli DC 0 = test: as above; conditions: Escherichia coli, DC0, read-out: In vitro Antibacterial Activity, MIC
Procedure: as §2, §3

E. coli TEM = test: as above; conditions: Escherichia coli, read-out: In vitro Antibacterial Activity, MIC
Procedure: as §2, §3

S. pyogenes A 308 = test: as above; conditions: Streptococcus pyogenes
Procedure: as §2, §3

P. aeruginosa 1771M = test: as above; conditions: Pseudomonas aeruginosa, read-out: In vitro Antibacterial Activity, MIC
Procedure: as §2, §3

E. coli DC 2 = test: as above; conditions: Escherichia coli
Procedure: as §2, §3

S. aureus 503 = test: as above; conditions: Staphylococcus aureus, 503, read-out: In vitro Antibacterial Activity, MIC
Procedure: as §2, §3

S. faecium MD 86 = test: as above; conditions: Enterococcus faecium
Procedure: as §2, §3

K. oxytoca 1082E = test: as above; conditions: Klebsiella oxytoca, read-out: In vitro Antibacterial Activity, MIC
Procedure: as §2, §3

S. aureus 285 = test: as above; conditions: Staphylococcus aureus, 285, read-out: In vitro Antibacterial Activity, MIC
Procedure: as §2, §3

E. coli O 55 = test: as above; conditions: Escherichia coli, O55, read-out: In vitro Antibacterial Activity, MIC
Procedure: as §2
(§4) The minimum inhibitory concentrations were determined according to the agar dilution method recommended by Japan Society of Chemotherapy[Chemotherapy., 29, 76 (1981)].

E. cloacae P99 = test: as above; conditions: Enterobacter cloacae, P99, read-out: In vitro Antibacterial Activity, MIC
Procedure: as §2, §4

S. typhimurium = test: as above; conditions: Salmonella enterica, TYPHIMURIUM, read-out: In vitro Antibacterial Activity, MIC
Procedure: as §2, §4

K. aerogenes 1522E = test: as above; conditions: Klebsiella aerogenes, 1522E, read-out: In vitro Antibacterial Activity, MIC
Procedure: as §2, §4

E. cloacae 1321E = test: as above; conditions: Enterobacter cloacae, 1321E, read-out: In vitro Antibacterial Activity, MIC
Procedure: as §2, §4

O=C(O)c1cn(C2CC2)c2cc(N3CCNCC3)c(F)cc2c1=O [CIP, Ciprofloxacin, reference compound]
1.56 µg/mL: MIC (S. pyogenes A 308; A308, S. pyogenes A 308, agar dilution method, read-out: In vitro Antibacterial Activity, MIC)
0.098 µg/mL: Antibacterial Activity for MRSA [9] | Antibacterial Activity for MRSA [13] | MIC (P. aeruginosa 9027; Pseudomonas aeruginosa, P. aeruginosa 9027, agar dilution method, read-out: In vitro Antibacterial Activity, MIC) | MIC (E. coli TEM; E. coli TEM, agar dilution method) | MIC (E. coli DC 2; DC2, E. coli DC 2, agar dilution method, read-out: In vitro Antibacterial Activity, MIC)
0.781 µg/mL: MIC (S. faecium MD 86; MD86, S. faecium MD 86, agar dilution method, read-out: In vitro Antibacterial Activity, MIC)
0.391 µg/mL: Antibacterial Activity for MRSA [1] | Antibacterial Activity for MRSA [6] | Antibacterial Activity for MRSA [7] | Antibacterial Activity for MRSA [10] | Antibacterial Activity for MRSA [11] | Antibacterial Activity for MRSA [12] | Antibacterial Activity for MRSA [14] | Antibacterial Activity for MRSA [16] | Antibacterial Activity for MRSA [18] | Antibacterial Activity for MRSA [19] | MIC (S. aureus 503)
0.002 µg/mL: MIC (K. oxytoca 1082E; K. oxytoca 1082E, agar dilution method)
0.049 µg/mL: MIC (E. coli 1507E; E. coli 1507E, agar dilution method) | MIC (P. aeruginosa 1771M; P. aeruginosa 1771M, agar dilution method)
0.195 µg/mL: Antibacterial Activity for MRSA [2] | Antibacterial Activity for MRSA [3] | Antibacterial Activity for MRSA [4] | Antibacterial Activity for MRSA [5] | Antibacterial Activity for MRSA [8] | Antibacterial Activity for MRSA [15] | Antibacterial Activity for MRSA [17] | MIC (S. pyogenes A 77) | MIC (P. aeruginosa 1771) | MIC (P. aeruginosa 1592E) | MIC (S. aureus SG 511) | MIC (E. coli DC 0) | MIC (S. aureus 285)

CSCC1CCN(c2cc3c(cc2F)c(=O)c(C(=O)O)cn3C2CC2)C1 (stereo not drawn) [Example 1, 1-cyclopropyl-6-fluoro-7-(3-methylthiomethylpyrrolidinyl)-1,4-dihydro-4-oxo-3-quinolinecarboxylic acid]
0.025 µg/mL: MIC (S. aureus SG 511) | MIC (S. aureus 503) | MIC (S. aureus 285) | MIC (E. coli O 55)
3.12 µg/mL: MIC (E. coli DC 0)
0.098 µg/mL: MIC (K. oxytoca 1082E; 1082E)
0.195 µg/mL: MIC (E. cloacae P99) | MIC (S. typhimurium) | MIC (E. cloacae 1321E)
1.56 µg/mL: MIC (E. coli 1507E; 1507E) | MIC (P. aeruginosa 1592E) | MIC (P. aeruginosa 9027; Pseudomonas aeruginosa, 9027, read-out: In vitro Antibacterial Activity, MIC) | MIC (S. pyogenes A 308; A308, read-out: In vitro Antibacterial Activity, MIC)
0.781 µg/mL: MIC (S. pyogenes A 77) | MIC (P. aeruginosa 1771) | MIC (E. coli DC 2; DC2, read-out: In vitro Antibacterial Activity, MIC) | MIC (S. faecium MD 86; MD86, read-out: In vitro Antibacterial Activity, MIC)
0.391 µg/mL: MIC (E. coli TEM) | MIC (P. aeruginosa 1771M; 1771M) | MIC (K. aerogenes 1522E)

Reference: patent EP0500835B1, “A NOVEL QUINOLONE CARBOXYLIC ACID DERIVATIVE” (DAEWOONG PHARMACEUTICAL CO., LTD., priority 1990, dated 1992)
